Assay results from patent US9296691B2, “Inhibitors of p75 receptor and their uses” (Horacio Uri Saragovi, priority 2010, dated 2016).

Columns and labels:
[1] = tested on: retinal ganglion cells (RGCs); test: ON axotomy model, quantification of surviving RGCs (fluorogold labeled); assay type: in vivo; details: rat ON axotomy, one intravitreal injection 3 μg, day 14; contralateral normal eye = 100%; control axotomy 10%
Method: (§1) Wistar rats (female, 250-300 g; Charles River) were kept in a 12 hours dark-light cycle with food and water ad libitum. All animal manipulations were performed between 9 AM and 12 AM. Deep anesthesia was used during cauterization (induction of glaucoma), ON transection, fluorogold labeling, intraocular injection procedures, Optical Coherence Tomography measurements, and euthanasia (ketamine, xylazine, acepromazine injected intraperitoneally: 50/5/1 mg/kg, as per IACUC recommendations). For measuring IOP, light anesthesia was used (a gas mixture of Oxygen, 2% isofluorane mixture, at a rate of 2.5 liter/min, as per IACUC recommendations).
The ON axotomy model in the rat (Bai et al., 2010a) was used. […]
(§2) For studies in the glaucoma animal model the injections were performed at days 14 and 21 after cauterization. […] Thus, in this paradigm there is pre-existing damage for 14 days before treatment (measured at ˜8% RGC death (Shi et al., 2007; Shi et al., 2008)); and the treatments require long-lived efficacy in the constant presence of retinal stress due to high IOP. […]
(§3) Quantification of labeled RGCs was performed as reported (Shi et al., 2007; Shi et al., 2008). […] Pictures for each freshly flat-mounted retina were taken using a Zeiss fluorescence microscope (Carl Zeiss Meditec, Jena, Germany), with 12 pictures/retina at 20× magnification. […]

nnr5 cells = test: Pro-NTF killing assay (MTT), nnr5 cells; assay type: cell-based; details: pro-NTF 50 nM + I-B 20 μM, 72 hours
Method: The effect of I-B on the pro-apoptotic function of pro-NGF or pro-BDNF was tested in functional MTT assays measuring cell metabolism (FIG. 1B).
Cells (5,000 cells/well) were cultured in 96-well plates (Falcon, Lincoln Park, N.J.) in normal culture media (RPMI1640, Hepes, Glutamine, 5% serum). Wells were supplemented with NGF, BDNF, pro-NGF, or pro-BDNF (Alomone Labs) (50 nM final), in the presence or absence of I-B (20 μM final). Wells containing all culture conditions but no cells were used as blanks. The growth/survival profile of the cells was quantified using MTT (Sigma) 72 hours after plating. Optical density readings of MTT were done in a Benchmark Plus microplate Spectrophotometer (BioRad) at 595 nm with blanks subtracted.

[2] = tested on: retinal ganglion cells (RGCs); test: Glaucoma (episcleral vein cauterization) model, quantification of surviving RGCs; assay type: in vivo; details: rat glaucoma, intravitreal injections days 14 and 21, endpoint day 42; contralateral normal eye = 100%; control glaucoma 74-77%
Method: as §1
The episcleral vein cauterization (EVC) model of rat (Shi et al., 2007; Shi et al., 2008) was used. […]
as §2, §3

Q: Which RGCs surviving [1] does the source give for `CC(C)NC(=O)N(C(=O)Cn1cnc2c1c(=O)n(C)c(=O)n2C)C(C)C` [I-B, 1,3-Diisopropyl-1-[2-(1,3-dimethyl-2,6-dioxo-1,2,3,6-tetrahydro-purin-7-yl)-acetyl]-urea] here?
A: 37%

Q: And the “cell viability (MTT) in presence of pro-NGF or pro-BDNF” value (nnr5 cells)?
A: prevented the loss of cell viability

Q: What about the RGCs surviving [2] of the same compound?
A: 92%
